Legend:
souche leucémique L1210 = assay: Antitumour activity on L1210 leukaemia inoculated i.p. in mice (ICIG, Example 11); assay type: in vivo, souris B6D2F1/OLA; conditions: for indices I: dose not given; for survie à 60 jours: à différentes doses
From the text: L'activité oncostatique de ces dérivés nitrosés a été déterminée à l'ICIG de Villejuif (Service du Pr. Mathe), en suivant un protocole expérimental décrit: M. Hayat et Coll., Cancer Chemother. Phar- macol., 1979, 3,217-221, R. Maral et Coll., Eur. J. Med. Chem., soumis pour publication.
(§1) Des souris B6D2F1/OLA, mâles, sont inoculées avec 10^5 cellules de la souche leucémique L1210 par voie intrapéritonéale au jour 0 et divisées en groupes. Le premier est le groupe témoin et les autres sont traités avec les drogues à différentes concentrations au jour 1,5 et 9. Les composés sont injectés en suspension dans l'huile d'olive. La mortalité des animaux est observée et l'autopsie indique si elle est due à la leucémie ou à l'action toxique des produits.
(§2) La dose létale 50% (DL50 aiguë) est déterminée en tenant compte de la mortalité survenue avant le huitième jour chez les animaux traités au jour J: 1. La médiane de survie des animaux traités (mT) et des animaux témoin (mC) a été établie et le test statistique non paramétrique de Wilcoxon a été utilisé. Les résultats sont considérés positifs si l'indice I (I = ^mT x 100) est supérieur à 125 et le test mC significatif à p ≼ 0,05. La valeur ∞ indique que 50% ou plus des animaux sont survivants au jour +60.
Plus l'intervalle des doses à efficacité maximale, ayant donc I = ∞, est important, plus le produit est doué d'une activité intéressante sur la leucémie L1210.

[1] = Acute lethal dose 50% (DL50 aiguë), i.p.; assay type: in vivo, souris B6D2F1/OLA; conditions: for DL 50: i.p., mortality before day 8 in animals treated on day 1, 11520 min
From the text: as §1, §2

SMILES: O=NN(CCCl)C(=O)NCCS [(1) ICIG 2016, N-[N-(chloro-2 éthyl) N-nitrosocarbamoyl] cystéamine]
- I = T/c × 100 (souche leucémique L1210; 0,8 mg/kg i.p., jours 1,5,9): 162
- I = T/c × 100 (souche leucémique L1210; 0,32 mg/kg i.p., jours 1,5,9): 265
- I = T/c × 100 (souche leucémique L1210; 2 mg/kg i.p., jours 1,5,9): 188
- % de survivants à 60 jours (souche leucémique L1210; 5 mg/kg i.p., jours 1,5,9): 100%
- I = T/c × 100 (souche leucémique L1210; 5 mg/kg i.p., jours 1,5,9): ∞ (La valeur ∞ indique que 50% ou plus des animaux sont survivants au jour +60)
- % de survivants à 60 jours (souche leucémique L1210; 10 mg/kg i.p., jours 1,5,9): 100%
- I = T/c × 100 (souche leucémique L1210; 10 mg/kg i.p., jours 1,5,9): ∞ (La valeur ∞ indique que 50% ou plus des animaux sont survivants au jour +60)
- % de survivants à 60 jours (souche leucémique L1210; 15 mg/kg i.p., jour + 1): 100%
- I = T/c × 100 (souche leucémique L1210; 15 mg/kg i.p., jour + 1): ∞ (La valeur ∞ indique que 50% ou plus des animaux sont survivants au jour +60)
- % de survivants à 60 jours (souche leucémique L1210; 12,5 mg/kg i.p., jours 1,5,9): 100%
- I = T/c × 100 (souche leucémique L1210; 12,5 mg/kg i.p., jours 1,5,9): ∞ (La valeur ∞ indique que 50% ou plus des animaux sont survivants au jour +60)
- indices I (souche leucémique L1210): infini
- survie à 60 jours (souche leucémique L1210): 100%
- DL 50 [1]: 19 mg/kg

SMILES: CSCCNC(=O)N(CCCl)N=O [(3) ICIG 2017, S-méthyl N-[N-(chloro-2 éthyl)N-nitrosocarbamoyl] cystéamine]
- I = T/c × 100 (souche leucémique L1210; 0,8 mg/kg i.p., jours 1,5,9): 167
- I = T/c × 100 (souche leucémique L1210; 0,32 mg/kg i.p., jours 1,5,9): 133
- I = T/c × 100 (souche leucémique L1210; 2 mg/kg i.p., jours 1,5,9): 158
- % de survivants à 60 jours (souche leucémique L1210; 5 mg/kg i.p., jours 1,5,9): 100%
- I = T/c × 100 (souche leucémique L1210; 5 mg/kg i.p., jours 1,5,9): ∞ (La valeur ∞ indique que 50% ou plus des animaux sont survivants au jour +60)
- I = T/c × 100 (souche leucémique L1210; 15 mg/kg i.p., jours 1,5,9): 156
- % de survivants à 60 jours (souche leucémique L1210; 12,5 mg/kg i.p., jours 1,5,9): 87%
- I = T/c × 100 (souche leucémique L1210; 12,5 mg/kg i.p., jours 1,5,9): ∞ (La valeur ∞ indique que 50% ou plus des animaux sont survivants au jour +60)
- indices I (souche leucémique L1210): infini
- survie à 60 jours (souche leucémique L1210): 100%
- DL 50 [1]: 22 mg/kg

SMILES: CC(=O)SCCNC(=O)N(CCCl)N=O [(5) ICIG 2018, S-acétyl N-[N-(chloro-2 éthyl) N-nitrosocarbamoyl] cystéamine]
- I = T/c × 100 (souche leucémique L1210; 0,64 mg/kg i.p., jours 1,5,9): 100
- I = T/c × 100 (souche leucémique L1210; 4 mg/kg i.p., jours 1,5,9): 158
- % de survivants à 60 jours (souche leucémique L1210; 5 mg/kg i.p., jours 1,5,9): 14%
- I = T/c × 100 (souche leucémique L1210; 5 mg/kg i.p., jours 1,5,9): 217
- % de survivants à 60 jours (souche leucémique L1210; 10 mg/kg i.p., jours 1,5,9): 100%
- I = T/c × 100 (souche leucémique L1210; 10 mg/kg i.p., jours 1,5,9): ∞ (La valeur ∞ indique que 50% ou plus des animaux sont survivants au jour +60)
- % de survivants à 60 jours (souche leucémique L1210; 15 mg/kg i.p., jours 1,5,9): 25%
- I = T/c × 100 (souche leucémique L1210; 15 mg/kg i.p., jours 1,5,9): 490
- I = T/c × 100 (souche leucémique L1210; 20 mg/kg i.p., jours 1,5,9): 211
- I = T/c × 100 (souche leucémique L1210; 1,6 mg/kg i.p., jours 1,5,9): 117
- % de survivants à 60 jours (souche leucémique L1210; 12,5 mg/kg i.p., jours 1,5,9): 80%
- I = T/c × 100 (souche leucémique L1210; 12,5 mg/kg i.p., jours 1,5,9): ∞ (La valeur ∞ indique que 50% ou plus des animaux sont survivants au jour +60)
- indices I (souche leucémique L1210): infini
- survie à 60 jours (souche leucémique L1210): 100%
- DL 50 [1]: 25 mg/kg

SMILES: O=NN(CCCl)C(=O)NCCSC(c1ccccc1)(c1ccccc1)c1ccccc1 [(9) ICIG 2069, S-trityl N-[N-(chloro-2 éthyl) N-nitrosocarbamoyl] cystéamine]
- I = T/c × 100 (souche leucémique L1210; 250 mg/kg i.p., jours 1,5,9, résultats partiels): > 278
- I = T/c × 100 (souche leucémique L1210; 625 mg/kg i.p., jours 1,5,9, résultats partiels): > 278
- toxicité, in words [1]: n'est pas toxique
